Results as given in paper PMC6753678, “Fueling Open Innovation for Malaria Transmission-Blocking Drugs: Hundreds of Molecules Targeting Early Parasite Mosquito Stages” (Frontiers in Microbiology, 2019).
Where two headings read alike, the source gives them in different places.

Legend:
[1] = tested on: 3D7-strain P. falciparum asexual parasites; test: P. falciparum asexual growth inhibition assay (Pf GIA); format: cell-based, Plasmodium falciparum; conditions: dose response confirmation; read-out: Pf asexual growth inhibition assays IC50
In short: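 Steps: seed parasites (0.25% parasitemia, 2% hematocrit) onto compound dilutions; incubate 72 h at 37°C, 5% O2/5% CO2; freeze at −70°C and thaw; add LDH reaction mix, read A650 after 10 min. Percent growth inhibition derived from chloroquine and DMSO controls, averaged over three biological replicates.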

[2] = tested on: HepG2 cells; test: HepG2 cytotoxicity assay; conditions: for Pb ODA (this manuscript) HepG2 cytoxicity: HepG2 cytotoxicity listed with the Pb ODA data set (this manuscript); for IC50: read-out: HepG2 cytotoxicity assay IC50, dose response confirmation; for Unified cytotox: HepG2 values of the three screens unified
In short: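 Cells at 2,500 per well in MEM with 10% fetal bovine serum and 1% NEAA were exposed to test compounds for 48 h at 37°C, 5% CO2. Viability was read by fluorescence, with percent inhibition calculated against 50 μM doxorubicin (positive) and DMSO (negative) controls.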

[3] = tested on: P. berghei ookinete development; conditions: for % inhibition, Replicate A / % inhibition, Replicate B: primary screen at 1 μM
[4] = read-out: Pb ODA (this manuscript) IC50, P. berghei ookinete development assay, this manuscript
[5] = read-out: Pb Ookinete development assay IC50, dose response confirmation
[6] = read-out: Pb ODA IC50, this manuscript

Compound	IC50 [1] [µM]	Pb ODA (this manuscript) HepG2 cytoxicity [2] [µM]	IC50 [2] [µM]	Is compound selective in assay? Pb ODA active? [3]	% inhibition, Replicate A [3] [%]	% inhibition, Replicate B [3] [%]	IC50 [3, 4] [µM]	IC50 [3, 5] [µM]	HepG2 cytoxicity (Pb ODA, this manuscript) [2] [µM]	Unified cytotox [2] [µM]	Is compound selective in assay? Pb ODA active? ([3]; 1: YES, 0: NO)	IC50 [3, 6] [µM]
CC(=O)Oc1c(Br)c(C)nc(C)c1-c1ccc(Oc2ccc(OC(F)(F)F)cc2)cc1 [TCMDC-137383]	0.15	9.89	9.89	1 (key: 1: YES; 0: NO)	98.12	79.70	0.59	0.589				
CC(=O)Oc1c(Cl)c(C)nc(C)c1-c1ccc(Oc2ccc(OC(F)(F)F)cc2)cc1 [TCMDC-137385]	0.075	31.99	32	1 (key: 1: YES; 0: NO)	89.00	125.42	1.02	1.02				
Cc1[nH]c(C)c(-c2ccc(Oc3cccc(OC(F)(F)F)c3)cc2)c(=O)c1Cl [TCMDC-137389]	0.47	100.00	100	1 (key: 1: YES; 0: NO)	25.35	53.00	1.13	1.13				
Cc1nc(C)c(-c2ccc(Oc3cc(Cl)cc(Cl)c3)cc2)c(O)c1Cl [TCMDC-137391]	0.0011	0.0017	0.0017	0 (key: 1: YES; 0: NO)	91.21	90.22	0.31	0.311				
Cc1nc(C)c(-c2ccc(Oc3cc(Cl)cc(Cl)c3)cc2)c(O)c1Br [TCMDC-137392]	0.498		19.9		78.18	115.81		0.447	19.95	19.95	1 (1: YES)	0.45
Cc1nc(C)c(-c2ccc(Oc3ccc(Cl)c(Cl)c3)cc2)c(O)c1Cl [TCMDC-137396]	0.096	16.98	17	1 (key: 1: YES; 0: NO)	89.72	133.12	0.12	0.124				
Cc1nc(C)c(-c2ccc(Oc3ccc(Cl)c(Cl)c3)cc2)c(O)c1Br [TCMDC-137397]	0.088		19.5		88.28	102.35		0.09	19.50	19.50	1 (1: YES)	
Cc1[nH]c(C)c(-c2ccc(Oc3ccc(F)cc3)cc2)c(=O)c1Br [TCMDC-137402]	0.03		3.8		94.48	95.56		0.057	3.80	3.80	1 (1: YES)	0.0567
Cc1nc(C)c(-c2ccc(Sc3ccc(Cl)cc3)cc2)c(O)c1Br [TCMDC-137404]	0.053	100.00	100	1 (key: 1: YES; 0: NO)	89.90	109.40	0.08	0.077				
Cc1[nH]c(C)c(-c2ccc(Oc3ccc(C(F)(F)F)cc3)cc2)c(=O)c1Br [TCMDC-137406]	0.133		5.75		103.93	109.45		0.127	5.75	5.75	1 (1: YES)	0.13
